This is an account of results in ChEMBL document CHEMBL1201862, “PubChem BioAssay data set” (2004).

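Cultured in 96-well plates, cells were exposed to test compound for 48 hours across five concentrations. GI50 = concentration required for 50% inhibition of growth.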 Calls of active or inactive are those of the source. Cut-off read from the data, not from the text of the source: active = GI50 up to about 1.1 µM and inactive = higher.

Common to all, as to assay: NCI tumour cell line growth inhibition, 48 h
In assay [1] the test system is DU-145.
The subject of assay [2] is EKVX.
Assay [3] has as its system HCT-15.
Assay [4] concerns KM12.
The subject of assay [5] is NCI-H522.
Assay [6] concerns NCI/ADR-RES.
For assay [7], the system named is OVCAR-4.
The test system of assay [8] is OVCAR-5.
Assay [9] relates to RPMI-8226.
Assay [10] concerns SF-268.
The test system of assay [11] is SF-539.
Assay [12] has as its system SK-MEL-28.
For assay [13], the system named is SK-MEL-5.
The subject of assay [14] is SN12C.
Assay [15] concerns SNB-19.
Assay [16] deals with SW-620.
Assay [17] concerns U-251.
The subject of assay [18] is UACC-257.
For assay [19], the system named is UACC-62.
The subject of assay [20] is BT-549.

Consider `C[Si](C)(C)CCOCN(C(=O)C1=CCC2(CC1)OCCO2)c1ccccc1I`, for which the GI50 in assay [1] is 25.4 µM (inactive); in assay [2] it was 14.8 µM (inactive); in [3] it was 17.8 µM; in [4], 18.7 µM (inactive); in assay [5], 21.1 µM (inactive); in [6] it was 26.7 µM (inactive). Further, the GI50 in assay [7] was 21.1 µM (inactive); in assay [8] it was 20 µM (inactive); in [9] it was 11.9 µM (inactive); in [10], 21.8 µM (inactive); in [11] it was 22.1 µM (inactive); in [12], 19.4 µM (inactive). Further, the GI50 in assay [13] is 11.3 µM (inactive); in assay [14], 28.1 µM (inactive); in assay [15] it was 19.2 µM (inactive); in [16], 22.3 µM (inactive); in assay [17], 24.9 µM (inactive); in assay [18], 20.9 µM (inactive). Besides, the GI50 in [19] is 16.9 µM (inactive).

In the case of `O=[N+]([O-])c1ccccc1S(=O)(=O)c1cc(Cl)cc2c1NCCC2`, the GI50 in assay [20] was 26.8 µM (inactive); in [1], 94.6 µM (inactive); in assay [2] it was > 100 µM (inactive); in assay [3], 65.6 µM; in assay [4], 85.9 µM (inactive); in [6] it was > 100 µM (inactive). The GI50 in assay [7] was > 100 µM (inactive); in assay [8], > 100 µM (inactive); in assay [9], 44.8 µM (inactive); in assay [10], > 100 µM (inactive); in [11] it was > 100 µM (inactive); in [12], 62.8 µM (inactive). Moreover, the GI50 is 29.7 µM (inactive) in assay [13]; 90.6 µM (inactive) in assay [14]; 65 µM (inactive) in assay [15]; > 100 µM (inactive) in assay [16]; 35.6 µM (inactive) in assay [18]; 38.5 µM (inactive) in assay [19].

Regarding `C(/C=N/N=C1NCCCN1)=N\N=C1NCCCN1`, the GI50 in [20], in assay [2], in assay [4], in [5], in [6] and in assay [7] was > 100 µM (inactive) in each case. Moreover, the GI50 in [8], in [10], in assay [11], in assay [12], in [13] and in assay [14] was > 100 µM (inactive) in each case. Also, the GI50 in assay [15], in assay [16], in assay [17], in assay [18] and in assay [19] was > 100 µM (inactive) in each case.

With `COc1ccccc1N1C(=O)/C(=C\c2ccccc2)SC1c1cc(OC)c(OC)c(OC)c1` (stereo not drawn), the GI50 in assay [20] is 34.8 µM (inactive); in [2], 37.8 µM (inactive); in assay [3] it was 32.3 µM; in assay [4], 32.1 µM (inactive); in assay [5], 22.2 µM (inactive); in assay [6], 32.1 µM (inactive). The GI50 was 53.5 µM (inactive) in assay [7]; 62.5 µM (inactive) in assay [8]; 48.5 µM (inactive) in [10]; 54 µM (inactive) in assay [12]; 27.6 µM (inactive) in assay [13]; 17.6 µM (inactive) in assay [14]. For the same compound, the GI50 in assay [15] was 66.8 µM (inactive); in assay [17] it was 27.1 µM (inactive); in assay [18], 83.4 µM (inactive); in [19], 30.2 µM (inactive).

Consider `COC(=O)c1cc(C)ccc1/C=C1\Cc2cccc(C)c2C1=O`, for which the GI50 is 17.6 µM (inactive) in assay [20]; 65.3 µM (inactive) in assay [1]; 33.1 µM (inactive) in [2]; 18.8 µM in assay [3]; 26.7 µM (inactive) in [4]; 10.5 µM (inactive) in assay [5]. Besides, the GI50 is 68.5 µM (inactive) in assay [7]; 78.7 µM (inactive) in [8]; 28.8 µM (inactive) in assay [9]; 98.9 µM (inactive) in assay [10]; 67.3 µM (inactive) in [11]; 62.1 µM (inactive) in [12]. The GI50 in [13] was 7.06 µM (inactive); in assay [14], 4.9 µM (inactive); in assay [15], > 100 µM (inactive); in assay [16], 31.6 µM (inactive); in assay [17], 36.6 µM (inactive); in [18], 22 µM (inactive).

As to `CC1(C)C=C(/C=N/Nc2ccc(Br)cc2)C(C#N)=C(O)C1(C#N)C#N`, the GI50 in assay [1] is 66.7 µM (inactive); in [2] it was 54.3 µM (inactive); in assay [4] it was 29.9 µM (inactive); in assay [5] it was 75.9 µM (inactive); in [6], 45.2 µM (inactive); in assay [7], 40 µM (inactive). The GI50 in assay [8] is > 100 µM (inactive); in assay [9], 38.5 µM (inactive); in assay [10], 40.9 µM (inactive); in assay [11], 55.2 µM (inactive); in [12] it was 81.8 µM (inactive); in assay [13], > 100 µM (inactive). The GI50 was 59.8 µM (inactive) in assay [14]; > 100 µM (inactive) in assay [15]; 36.5 µM (inactive) in [16]; 31.8 µM (inactive) in assay [18]; 38.7 µM (inactive) in assay [19].

As for `CCOC(=O)c1nc2ccc(C(F)(F)F)cc2nc1Oc1ccc(C#N)cc1`, the GI50 in assay [20] is 18.8 µM (inactive); in [1], 18.5 µM (inactive); in assay [2] it was 14 µM (inactive); in assay [3], 38.4 µM; in assay [4], 23.6 µM (inactive); in assay [6], 18.2 µM (inactive). The GI50 in assay [7] is 29.6 µM (inactive); in assay [9] it was > 100 µM (inactive); in assay [10], 15.5 µM (inactive); in assay [11], 19.5 µM (inactive); in assay [12], 43.1 µM (inactive); in assay [13], 38.3 µM (inactive). Besides, the GI50 in assay [15] was 17.7 µM (inactive); in assay [16], 40.3 µM (inactive); in [17], 26.3 µM (inactive); in [18] it was 25.5 µM (inactive); in assay [19], 19.1 µM (inactive).

Take `O=S(=O)(O)c1ccc(/N=N/c2ccc(/N=N/c3c(O)ccc4ccccc34)c(S(=O)(=O)O)c2)cc1`: the GI50 is > 100 µM (inactive) in assay [20]; > 100 µM (inactive) in assay [2]; over 100 µM in [3]; > 100 µM (inactive) in assay [4]; > 100 µM (inactive) in assay [5]; > 100 µM (inactive) in assay [6]. Besides, the GI50 in assay [8], in [9], in assay [10], in assay [11], in assay [12] and in assay [13] was > 100 µM (inactive) each time. In addition, the GI50 in assay [15], in assay [16], in assay [17], in [18] and in [19] was > 100 µM (inactive) in each case.

Turning to `COc1ccc(-c2cc(-c3ccc(Nc4ccnc5cc(C(F)(F)F)ccc45)cc3)nc(N)c2C#N)cc1`, the GI50 was 46.2 µM (inactive) in assay [20]; > 100 µM (inactive) in assay [1]; > 100 µM (inactive) in assay [2]; 60.5 µM in assay [3]; 86.9 µM (inactive) in assay [4]; > 100 µM (inactive) in assay [6]. Further, the GI50 in [7] is 27.7 µM (inactive); in assay [8], > 100 µM (inactive); in assay [9], > 100 µM (inactive); in assay [11] it was 34.6 µM (inactive); in assay [12] it was 32.5 µM (inactive); in [13], > 100 µM (inactive). Further, the GI50 was 42.7 µM (inactive) in assay [15], 62.1 µM (inactive) in assay [16], 75 µM (inactive) in assay [17] and 40.6 µM (inactive) in assay [19].

Turning to `COc1cccc(C(=O)Oc2ccc(OS(=O)(=O)c3ccc(C)cc3)cc2)c1C#N`, the GI50 was 93.1 µM (inactive) in assay [1]; 59.8 µM (inactive) in [2]; 74 µM in [3]; 61.1 µM (inactive) in [4]; 86.7 µM (inactive) in assay [5]; 33 µM (inactive) in assay [6]. The GI50 in assay [7] is 52.5 µM (inactive); in assay [8], > 100 µM (inactive); in assay [9], 36.8 µM (inactive); in [10], > 100 µM (inactive); in [11], > 100 µM (inactive); in [12], > 100 µM (inactive). Moreover, the GI50 in [13] is 11.4 µM (inactive); in [14], > 100 µM (inactive); in assay [15], > 100 µM (inactive); in [16] it was > 100 µM (inactive); in assay [17], > 100 µM (inactive); in assay [18] it was 28.6 µM (inactive). In addition, the GI50 in assay [19] is 87.3 µM (inactive).

For `CC(C)c1nc2cc(C(F)(F)F)ccc2[nH]c1=O`, the GI50 in assay [20] is > 100 µM (inactive); in [2] it was 7 µM (inactive); in assay [3], over 100 µM; in assay [4], > 100 µM (inactive); in [5] it was 39 µM (inactive); in [6], 57.8 µM (inactive). In addition, the GI50 in assay [7] was 94.8 µM (inactive); in [8] it was > 100 µM (inactive); in assay [9] it was > 100 µM (inactive); in assay [10], 88.5 µM (inactive); in assay [11], > 100 µM (inactive); in assay [12], > 100 µM (inactive). Besides, the GI50 in assay [13] is 61.7 µM (inactive); in [14], > 100 µM (inactive); in assay [15] it was > 100 µM (inactive); in assay [16], > 100 µM (inactive); in assay [17] it was > 100 µM (inactive); in assay [18] it was > 100 µM (inactive). Further, the GI50 in assay [19] is 29.8 µM (inactive).
